The text below walks through data of publication PMC9862168, “Inhibition of ANO1 by Cis- and Trans-Resveratrol and Their Anticancer Activity in Human Prostate Cancer PC-3 Cells” (International Journal of Molecular Sciences, 2023).

The target in this experiment is T1, ANO1 (Homo sapiens, UniProt Q5XXA6).
T1 sequence (Q5XXA6 1-986): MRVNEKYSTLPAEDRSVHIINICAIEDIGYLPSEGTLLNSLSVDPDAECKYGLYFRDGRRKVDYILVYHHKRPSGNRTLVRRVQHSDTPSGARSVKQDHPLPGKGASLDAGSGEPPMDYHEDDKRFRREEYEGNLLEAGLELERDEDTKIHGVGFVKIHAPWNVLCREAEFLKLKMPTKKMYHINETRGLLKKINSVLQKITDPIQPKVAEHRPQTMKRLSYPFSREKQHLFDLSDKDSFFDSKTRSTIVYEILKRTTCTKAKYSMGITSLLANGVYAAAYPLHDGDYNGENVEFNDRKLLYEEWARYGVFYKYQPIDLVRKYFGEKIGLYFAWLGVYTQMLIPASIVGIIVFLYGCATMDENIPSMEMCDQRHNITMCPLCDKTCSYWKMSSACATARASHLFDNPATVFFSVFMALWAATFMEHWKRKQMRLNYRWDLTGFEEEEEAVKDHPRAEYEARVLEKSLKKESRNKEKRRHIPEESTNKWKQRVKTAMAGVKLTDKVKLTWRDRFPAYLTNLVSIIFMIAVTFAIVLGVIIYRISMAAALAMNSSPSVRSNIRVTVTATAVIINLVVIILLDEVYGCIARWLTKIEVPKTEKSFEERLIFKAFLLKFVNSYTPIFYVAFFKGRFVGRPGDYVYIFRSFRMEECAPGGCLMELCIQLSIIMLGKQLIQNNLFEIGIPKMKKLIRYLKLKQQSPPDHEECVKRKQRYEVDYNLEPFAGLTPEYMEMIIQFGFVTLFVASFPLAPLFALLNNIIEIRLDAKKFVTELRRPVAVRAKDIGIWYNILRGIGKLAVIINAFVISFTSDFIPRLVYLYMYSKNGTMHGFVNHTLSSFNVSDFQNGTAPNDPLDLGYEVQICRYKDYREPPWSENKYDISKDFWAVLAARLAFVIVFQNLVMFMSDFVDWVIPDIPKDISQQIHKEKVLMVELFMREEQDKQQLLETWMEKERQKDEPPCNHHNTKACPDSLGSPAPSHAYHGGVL
Description: YFP fluorescence quenching in FRT cells expressing human ANO1; also Ussing chamber and whole-cell patch clamp in HEK293T. It counts as cell-based. For orientation: Patch clamp records ionic current or voltage across a cell membrane.

As for `Oc1ccc(/C=C/c2cc(O)cc(O)c2)cc1` [trans-resveratrol], the IC50 was determined as 102 µM. The compound `Oc1ccc(/C=C\c2cc(O)cc(O)c2)cc1` [cis-resveratrol] returned an IC50 of 10.6 µM.

Usually IC50 stands for the concentration needed to halve the response being measured. Read a low IC50 as higher potency.
